Literature values, collected in patent publication US20110190376A1, “RNAi-RELATED INHIBITION OF TNFa SIGNALING PATHWAY FOR TREATMENT OF MACULAR EDEMA” (ALCON RESEARCH, LTD., priority 2007, published 2011).

Experiments:
[1] = test system: refractory chronic cystoid macular edema (CME)
macular edema = details: patients also suffering from posterior uveitis
[2] = test system: severe diabetic macular edema; details: eyes that had severe diabetic macular edema

In the case of infliximab, the “eyes with complete regression of refractory chronic cystoid macular edema” value [1] is listed as 8 of 14, the “resolution of macular edema” value (macular edema) is listed as “caused macular edema to resolve in two patients” and the “eyes with anatomic and functional improvement” value [2] is listed as “four of six”.
